Patent US12146879B2, “Capacitive biosensor for identifying a microorganism or determining antibiotic susceptibility” (priority 2016, dated 2024)
In brackets after ≈: the same amount, converted by molar mass.

Experiments:
E. coli [1] = test: Susceptibility measurement by type of antibiotic with capacitive biosensor (E. coli-specific aptamer); type: cell-based; conditions: antibiotic 100 ng/ml, 37° C., 6 hours, FIG. 8
Protocol: The susceptibility inspection for antibiotics was performed, after identifying an E. coli using the capacitive biosensor manufactured by treating E. coli-specific aptamer in Experimental Example 2 on the substrate manufactured according to Manufacturing Example 2.
PBS was treated as a control, each treatment was treated with cephalothin, Gentamicin, Ciprofloxacin and chloramphenicol at a concentration of 100 ng/ml, the change in capacitance with time was measured for 6 hours in an incubator at 37° C.

E. coli [2] = test: Minimum inhibitory concentration by real-time capacitance of capacitive biosensor; type: cell-based; conditions: E. coli 10^5 cells/ml grown 2 hours at 37° C.
Protocol: To determine the minimum inhibitory concentration of an antibiotic, E. coli (10^5 cells/ml) was treated with a capacitive biosensor and grown at 37° C. for 2 hours, and then treated with antibiotic ceftriaxone (MIC: ˜ 30 ng/ml) at concentrations of 100, 80, 60, 40 and 20 ng/ml, respectively. The degree of susceptibility was determined based on the results of the capacitance monitored in real time, and the minimum inhibitory concentration thereof was confirmed.
(§1) In addition, E. coli (10^5 cells/ml) was treated with a capacitive biosensor and grown at 37° C. for 2 hours, and then treated with antibiotic Gentamicin (MIC: ˜ […]) 50, 5, 0.5, 0.05, and 0.005 μg/ml, respectively. The degree of susceptibility was determined based on the results of the capacitance monitored in real time, and the minimum inhibitory concentration thereof was confirmed.

Staphylococcus aureus [3] = test: as above; type: cell-based; conditions: Staphylococcus aureus 10^5 cells/ml grown 2 hours at 37° C.; 50, 5, 0.5, 0.05, 0.005 μg/ml; text prints 'this E. coli'
Protocol: as §1, with “Staphylococcus aureus” for “E. coli”, “then was” for “then”

[4] = tested on: Ampicillin-resistant E. coli; test: Susceptibility of antibiotic-resistant bacterium by real-time capacitance; type: cell-based; conditions: Tetracycline 2 μg/ml, Gentamicin 1 μg/ml, Ampicillin 8 μg/ml; FIG. 11 (b)
Protocol: (§2) In addition, Tetracycline-resistant E. coli or Ampicillin-resistant E. coli (10^5 cells/ml) was treated with a capacitive biosensor and grown at 37° C. for 2 hours, and was then treated with Tetracycline at a concentration of 2 μg/ml, Gentamicin at a concentration of 1 μg/ml, and Ampicillin at a concentration of 8 μg/ml, respectively. The degree of susceptibility was determined based on the results of the capacitance monitored in real time.

[5] = tested on: Tetracycline-resistant E. coli; test: as above; type: cell-based; conditions: Tetracycline 2 μg/ml, Gentamicin 1 μg/ml, Ampicillin 8 μg/ml; FIG. 11 (a)
Protocol: as §2

E. coli [6] = conditions: reference value given in the method; cited from earlier work
Staphylococcus aureus [7] = conditions: reference value given in the method; cited from earlier work
E. coli [8] = test: Identification of a microorganism: capacitance change of aptamer-fixed biosensor; type: binding; conditions: about 2 hours, 37° C., FIG. 6
Protocol: (§3) An experiment was conducted to confirm whether a microorganism could be identified using the biosensor produced according to Production Example 2.
(§4) Particularly, each well was treated and fixed with an aptamer specific to E. coli, Acinetobacterbaumannii, Staphylococcus aureus or Enterococcus faecalis, and media (a control group or a control) not containing a microorganism, E. coli, Acinetobacterbaumannii, Staphylococcus aureus or Enterococcus faecalis were treated with a sensor, and then the change in capacitance was measured after about 2 hours in an incubator at 37° C.

other microorganisms = test: as above; type: binding; conditions: about 2 hours, 37° C., FIG. 6
Protocol: as §3, §4

Staphylococcus aureus [9] = test: as above; type: binding; conditions: about 2 hours, 37° C., FIG. 6
Protocol: as §3, §4

With Gentamicin the “change in capacitance after the addition of antibiotics” value (shortened to “change in capacitance … of antibiotics”) (E. coli [1]) was “decrease in capacitance”, the “susceptibility or resistance of the bacterium to the antibiotic” value (“susceptibility or resistance” below) (E. coli [1]) was “susceptibility” and the minimum inhibitory concentration (E. coli [2]; 50, 5, 0.5, 0.05, 0.005 μg/ml, FIG. 10) was 0.5 µg/mL. For the same molecule, the minimum inhibitory concentration (Staphylococcus aureus [3]) was 0.5 µg/mL, the “change in capacitance value after antibiotic treatment” value [4] was “decrease in capacitance value” and the “change in capacitance value after antibiotic treatment” value [5] was “decrease in capacitance value”. The MIC (stated with the antibiotic) (E. coli [6]) was 0.5 µg/mL and the MIC (stated with the antibiotic) (Staphylococcus aureus [7]) was 0.5 µg/mL.

For `O=C(N[C@H](CO)[C@H](O)c1ccc([N+](=O)[O-])cc1)C(Cl)Cl` [chloramphenicol], the “change in capacitance … of antibiotics” value (E. coli [1]) was “increase in capacitance” and the “susceptibility or resistance” value (E. coli [1]) was “resistance (tolerance)”.

In the case of `CC(=O)OCC1=C(C(=O)O)N2C(=O)[C@@H](NC(=O)Cc3cccs3)[C@H]2SC1` [cephalothin], the “change in capacitance … of antibiotics” value (E. coli [1]) is reported as “increase in capacitance” and the “susceptibility or resistance” value (E. coli [1]) is reported as “resistance (tolerance)”.

For `CO/N=C(\C(=O)N[C@@H]1C(=O)N2C(C(=O)O)=C(CSc3nc(=O)c(=O)[nH]n3C)CS[C@H]12)c1csc(N)n1` [ceftriaxone], the MIC (E. coli [2]; Escherichia coli, 100, 80, 60, 40 and 20 ng/ml, FIG. 9) is given as 0.04 µg/mL (≈ 0.0721 µM) and the “MIC (stated with the antibiotic)” value (E. coli [6]) is given as roughly 0.03 µg/mL.

In the case of `O=C(O)c1cn(C2CC2)c2cc(N3CCNCC3)c(F)cc2c1=O` [Ciprofloxacin], the “change in capacitance … of antibiotics” value (E. coli [1]) is reported as “decrease in capacitance”, the “susceptibility or resistance” value (E. coli [1]) is reported as “susceptibility” and the “susceptibility or resistance” value (E. coli [1]; listed as ciprofloxacin) is reported as “high”.

B1: E. coli-specific aptamer: E. coli-specific aptamer, SEQ ID NO: 1, Genotech, Daejeon, Korea (nucleic acid)
chain: GCAATGGTACGGTACTTCCCCATGAGTGTTGTGAAATGTTGGGACACTAGGTGGCATAGAGCCGCAAAAGTGCACGCTACTTTGCTAA
modifications: DNA, backbone and methylation of C not given here; deposited on substrate, further chemistry not fully specified
With B1 the “change in capacitance on treatment with E. coli” value (E. coli [8]) was “significantly increased” and the “change in capacitance on treatment with other microorganisms” value (other microorganisms) was “did not occur significantly”.

B2: Staphylococcus aureus-specific aptamer: Staphylococcal aptamer, SEQ ID NO: 3, Genotech, Daejeon, Korea (nucleic acid)
chain: GCAATGGTACGGTACTTCCTCGGCACGTTCTCAGTAGCGCTCGCTGGTCATCCCACAGCTACGTCAAAAGTGCACGCTACTTTGCTAA
modifications: DNA, backbone and methylation of C not given here; deposited on substrate, further chemistry not fully specified
In the case of B2, the “change in capacitance on treatment with Staphylococcus aureus” value (Staphylococcus aureus [9]) is reported as “large capacitance change” and the “change in capacitance on treatment with other microorganisms” value (other microorganisms) is reported as “did not occur significantly”.
